Laboratory results from ChEMBL document CHEMBL1201862, “PubChem BioAssay data set” (2004).
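48-hour exposure; five concentrations; linearly interpolated endpoints. At the GI50, growth is halved.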 Calls of active or inactive are those of the source. Cut-off read from the data, not from the text of the source: active = GI50 up to about 1.1 µM and inactive = higher.

How the values were obtained:
Assay in all cases: inhibition of tumour cell growth, NCI panel, 48 h
NCI/ADR-RES = test system: NCI/ADR-RES
SNB-19 = test system: SNB-19
U-251 = test system: U-251
RPMI-8226 = test system: RPMI-8226
BT-549 = test system: BT-549
LOX IMVI = test system: LOX IMVI
CCRF-CEM = test system: CCRF-CEM
M14 = test system: M14
HL-60 = test system: HL-60
NCI-H23 = test system: NCI-H23
RXF 393 = test system: RXF 393
DU-145 = test system: DU-145
Hs-578T = test system: Hs-578T
MDA-MB-435 = test system: MDA-MB-435
UO-31 = test system: UO-31
OVCAR-4 = test system: OVCAR-4
SK-OV-3 = test system: SK-OV-3
IGROV-1 = test system: IGROV-1
786-0 = test system: 786-0
UACC-257 = test system: UACC-257
HCC 2998 = test system: HCC 2998
HOP-62 = test system: HOP-62
HOP-92 = test system: HOP-92
UACC-62 = test system: UACC-62
CAKI-1 = test system: CAKI-1
SF-268 = test system: SF-268
K562 = test system: K562
OVCAR-8 = test system: OVCAR-8
HT-29 = test system: HT-29
Malme-3M = test system: Malme-3M
SK-MEL-28 = test system: SK-MEL-28
HCT-15 = test system: HCT-15
NCI-H226 = test system: NCI-H226
SK-MEL-2 = test system: SK-MEL-2
NCI-H460 = test system: NCI-H460
KM12 = test system: KM12
PC-3 = test system: PC-3
SF-295 = test system: SF-295
COLO 205 = test system: COLO 205
MDA-N = test system: MDA-N
T47D = test system: T47D
SK-MEL-5 = test system: SK-MEL-5
NCI-H522 = test system: NCI-H522
OVCAR-5 = test system: OVCAR-5
EKVX = test system: EKVX
SNB-75 = test system: SNB-75
ACHN = test system: ACHN
HCT-116 = test system: HCT-116
TK-10 = test system: TK-10
A549 = test system: A549
OVCAR-3 = test system: OVCAR-3
SR = test system: SR
MCF7 = test system: MCF7
SW-620 = test system: SW-620
MDA-MB-231 = test system: MDA-MB-231
A498 = test system: A498
SN12C = test system: SN12C
MOLT-4 = test system: MOLT-4
SF-539 = test system: SF-539

CC(C)Cn1cnc2c(SCc3ccccn3)nc(N)nc21
GI50 (NCI/ADR-RES): > 100 µM (inactive)
GI50 (SNB-19): > 100 µM (inactive)
GI50 (U-251): > 100 µM (inactive)
GI50 (RPMI-8226): > 100 µM (inactive)
GI50 (BT-549): > 100 µM (inactive)
GI50 (LOX IMVI): > 100 µM (inactive)
GI50 (CCRF-CEM): > 100 µM (inactive)
GI50 (M14): > 100 µM (inactive)
GI50 (HL-60): > 100 µM (inactive)
GI50 (NCI-H23): > 100 µM (inactive)
GI50 (RXF 393): > 100 µM (inactive)
GI50 (DU-145): > 100 µM (inactive)
GI50 (Hs-578T): > 100 µM (inactive)
GI50 (MDA-MB-435): > 100 µM (inactive)
GI50 (UO-31): > 100 µM (inactive)
GI50 (OVCAR-4): > 100 µM (inactive)
GI50 (SK-OV-3): > 100 µM (inactive)
GI50 (IGROV-1): > 100 µM (inactive)
GI50 (786-0): > 100 µM (inactive)
GI50 (UACC-257): > 100 µM (inactive)
GI50 (HCC 2998): > 100 µM (inactive)
GI50 (HOP-62): > 100 µM (inactive)
GI50 (HOP-92): > 100 µM (inactive)
GI50 (UACC-62): > 100 µM (inactive)
GI50 (CAKI-1): > 100 µM (inactive)
GI50 (SF-268): > 100 µM (inactive)
GI50 (K562): > 100 µM (inactive)
GI50 (OVCAR-8): > 100 µM (inactive)
GI50 (HT-29): > 100 µM (inactive)
GI50 (Malme-3M): > 100 µM (inactive)
GI50 (SK-MEL-28): > 100 µM (inactive)
GI50 (HCT-15): > 100 µM
GI50 (NCI-H226): > 100 µM (inactive)
GI50 (SK-MEL-2): > 100 µM (inactive)
GI50 (NCI-H460): > 100 µM (inactive)
GI50 (KM12): > 100 µM (inactive)
GI50 (PC-3): > 100 µM (inactive)
GI50 (SF-295): > 100 µM (inactive)
GI50 (COLO 205): > 100 µM (inactive)
GI50 (MDA-N): > 100 µM (inactive)
GI50 (T47D): 80.7 µM (inactive)
GI50 (SK-MEL-5): > 100 µM (inactive)
GI50 (NCI-H522): > 100 µM (inactive)
GI50 (OVCAR-5): > 100 µM (inactive)
GI50 (EKVX): > 100 µM (inactive)
GI50 (SNB-75): 51.9 µM (inactive)
GI50 (ACHN): > 100 µM (inactive)
GI50 (HCT-116): > 100 µM (inactive)
GI50 (TK-10): > 100 µM (inactive)
GI50 (A549): > 100 µM (inactive)
GI50 (OVCAR-3): > 100 µM (inactive)
GI50 (SR): > 100 µM (inactive)
GI50 (MCF7): > 100 µM (inactive)
GI50 (SW-620): > 100 µM (inactive)
GI50 (MDA-MB-231): > 100 µM (inactive)
GI50 (A498): > 100 µM (inactive)
GI50 (SN12C): > 100 µM (inactive)

Cc1[nH]c(-c2ccccc2)c(O)c1C(=O)OC1CC(C)CCC1C(C)C (stereo not drawn)
GI50 (MOLT-4): 11.1 µM (inactive)
GI50 (NCI/ADR-RES): 14.7 µM (inactive)
GI50 (SNB-19): 17.3 µM (inactive)
GI50 (U-251): 15.5 µM (inactive)
GI50 (RPMI-8226): 15.3 µM (inactive)
GI50 (BT-549): 18.4 µM (inactive)
GI50 (CCRF-CEM): 11 µM (inactive)
GI50 (M14): 15.6 µM (inactive)
GI50 (HL-60): 16.4 µM (inactive)
GI50 (NCI-H23): 13.4 µM (inactive)
GI50 (RXF 393): 11.7 µM (inactive)
GI50 (DU-145): 15.8 µM (inactive)
GI50 (Hs-578T): 18.3 µM (inactive)
GI50 (MDA-MB-435): 14.8 µM (inactive)
GI50 (UO-31): 13.3 µM (inactive)
GI50 (OVCAR-4): 13.4 µM (inactive)
GI50 (SK-OV-3): 15.3 µM (inactive)
GI50 (IGROV-1): 15.6 µM (inactive)
GI50 (786-0): 15.3 µM (inactive)
GI50 (UACC-257): 15.7 µM (inactive)
GI50 (HOP-62): 15.3 µM (inactive)
GI50 (HOP-92): 17.6 µM (inactive)
GI50 (UACC-62): 16.5 µM (inactive)
GI50 (CAKI-1): 17.7 µM (inactive)
GI50 (SF-268): 15.3 µM (inactive)
GI50 (K562): 50 µM (inactive)
GI50 (OVCAR-8): 16 µM (inactive)
GI50 (HT-29): 14.4 µM (inactive)
GI50 (Malme-3M): 18.7 µM (inactive)
GI50 (SK-MEL-28): 16.3 µM (inactive)
GI50 (HCT-15): 17.8 µM
GI50 (NCI-H226): 16.9 µM (inactive)
GI50 (SK-MEL-2): 14.3 µM (inactive)
GI50 (NCI-H460): 15.3 µM (inactive)
GI50 (KM12): 13.4 µM (inactive)
GI50 (PC-3): 13.8 µM (inactive)
GI50 (SF-295): 12.4 µM (inactive)
GI50 (COLO 205): 14.8 µM (inactive)
GI50 (MDA-N): 16.3 µM (inactive)
GI50 (T47D): 13.7 µM (inactive)
GI50 (SK-MEL-5): 16.6 µM (inactive)
GI50 (NCI-H522): 13.3 µM (inactive)
GI50 (OVCAR-5): 14.2 µM (inactive)
GI50 (EKVX): 11.7 µM (inactive)
GI50 (SNB-75): 17.9 µM (inactive)
GI50 (ACHN): 16.4 µM (inactive)
GI50 (SF-539): 16.2 µM (inactive)
GI50 (HCT-116): 14.9 µM (inactive)
GI50 (A549): 13.4 µM (inactive)
GI50 (OVCAR-3): 12.7 µM (inactive)
GI50 (SR): 8.51 µM (inactive)
GI50 (MCF7): 3.91 µM (inactive)
GI50 (SW-620): 15.7 µM (inactive)
GI50 (MDA-MB-231): 15.5 µM (inactive)
GI50 (A498): 18.6 µM (inactive)
GI50 (SN12C): 15.7 µM (inactive)

C=CC[C@H](C)CCC(=O)N1[C@H]2CC3CC[C@@]2(CS1(=O)=O)C3(C)C
GI50 (MOLT-4): 17.3 µM (inactive)
GI50 (NCI/ADR-RES): 44.2 µM (inactive)
GI50 (SNB-19): 87.9 µM (inactive)
GI50 (U-251): 56.1 µM (inactive)
GI50 (RPMI-8226): 39.9 µM (inactive)
GI50 (BT-549): 78.7 µM (inactive)
GI50 (LOX IMVI): 30.8 µM (inactive)
GI50 (CCRF-CEM): 18.7 µM (inactive)
GI50 (M14): 35.6 µM (inactive)
GI50 (HL-60): 25.1 µM (inactive)
GI50 (NCI-H23): 22.7 µM (inactive)
GI50 (RXF 393): 49 µM (inactive)
GI50 (DU-145): > 100 µM (inactive)
GI50 (Hs-578T): 30.6 µM (inactive)
GI50 (MDA-MB-435): 47.2 µM (inactive)
GI50 (UO-31): 40.7 µM (inactive)
GI50 (OVCAR-4): 39.5 µM (inactive)
GI50 (SK-OV-3): > 100 µM (inactive)
GI50 (IGROV-1): > 100 µM (inactive)
GI50 (786-0): 50.6 µM (inactive)
GI50 (UACC-257): 66.1 µM (inactive)
GI50 (HCC 2998): 49.2 µM (inactive)
GI50 (HOP-62): > 100 µM (inactive)
GI50 (HOP-92): > 100 µM (inactive)
GI50 (UACC-62): > 100 µM (inactive)
GI50 (CAKI-1): 80.4 µM (inactive)
GI50 (SF-268): 41.7 µM (inactive)
GI50 (OVCAR-8): 45.4 µM (inactive)
GI50 (HT-29): 18.8 µM (inactive)
GI50 (Malme-3M): 46.8 µM (inactive)
GI50 (SK-MEL-28): > 100 µM (inactive)
GI50 (HCT-15): 25.5 µM
GI50 (NCI-H226): 51.5 µM (inactive)
GI50 (SK-MEL-2): 50.2 µM (inactive)
GI50 (NCI-H460): 30.5 µM (inactive)
GI50 (KM12): 39.3 µM (inactive)
GI50 (PC-3): 40.3 µM (inactive)
GI50 (SF-295): 45.2 µM (inactive)
GI50 (COLO 205): 34.3 µM (inactive)
GI50 (MDA-N): 79.8 µM (inactive)
GI50 (T47D): 42.6 µM (inactive)
GI50 (SK-MEL-5): 21.5 µM (inactive)
GI50 (NCI-H522): 30.3 µM (inactive)
GI50 (OVCAR-5): > 100 µM (inactive)
GI50 (EKVX): 51.1 µM (inactive)
GI50 (ACHN): 40.7 µM (inactive)
GI50 (HCT-116): 48 µM (inactive)
GI50 (TK-10): > 100 µM (inactive)
GI50 (A549): 39.8 µM (inactive)
GI50 (SR): 31.5 µM (inactive)
GI50 (MCF7): 33.9 µM (inactive)
GI50 (SW-620): 79.8 µM (inactive)
GI50 (MDA-MB-231): > 100 µM (inactive)
GI50 (A498): > 100 µM (inactive)
GI50 (SN12C): 85.5 µM (inactive)
